Test results taken from patent US7049292B2, “Therapeutically effective peptides related to preproinsulin” (King's College London, priority 2004, dated 2006).
Where “and” joins values, the source holds several entries; their conditions need not be identical. Identical values can stand only once. Like-named read-outs stand apart in the source and are kept apart here. Ends that are not written are not given here.

How the values were obtained:
[1] = system: anti-inflammatory (IL-10 secreting) CD4+ T lymphocytes in PBMCs; assay type: cell-based, human; settings: for IL-10 response, stimulation index (SI): PBMCs, peptide 10 μM
[2] = system: pathogenic (IFN-γ) CD4+ T lymphocytes in PBMCs; assay: IFN-γ ELISPOT analysis of PBMCs cultured with peptide; assay type: cell-based, human; settings: for Prevalence of IFN-γ responses, Totals (%) / Prevalence of IFN-γ responses, Totals (responders/tested): positive response SI≧3.0; for IFN-γ response, stimulation index (SI): PBMCs, peptide 10 μM
[3] = non-diabetic control subject C13
[4] = patient #3, T1DM with HLA-DR4 alleles
[5] = patient #27, T1DM with non-DR4 alleles
[6] = T1DM patients with HLA-DR4 alleles
[7] = T1DM patients with non-DR4 alleles
[8] = patient #5, T1DM with HLA-DR4 alleles
[9] = patient #6, T1DM with HLA-DR4 alleles
[10] = patient #28, T1DM with non-DR4 alleles
[11] = patient #29, T1DM with non-DR4 alleles

QPLALEGSLQKRGIVEQ [C22-A5]
Prevalence of IL-10 responses, Totals (responders/tested) [1]: 1/12 and 1/5 and 1/13 | IL-10 response, stimulation index (SI) [1, 3]: 4.3 | IL-10 response, stimulation index (SI) [1, 4]: 7.36 | IL-10 response, stimulation index (SI) [1, 5]: 3.0 | Prevalence of IFN-γ responses, Totals (%) [2, 6]: (18) % | Prevalence of IFN-γ responses, Totals (responders/tested) [2, 6]: 3/17 | Prevalence of IFN-γ responses, Totals (%) [2, 7]: (25) % | Prevalence of IFN-γ responses, Totals (responders/tested) [2, 7]: 2/8 | Prevalence of IFN-γ responses, Totals (%) ([2]; non-diabetic control subjects): (0) % | Prevalence of IFN-γ responses, Totals (responders/tested) ([2]; non-diabetic control subjects): 0/14 | IFN-γ response, stimulation index (SI) [2, 8]: 3.7 | IFN-γ response, stimulation index (SI) [2, 9]: 22.0 | IFN-γ response, stimulation index (SI) ([2]; patient #13, T1DM with HLA-DR4 alleles): 3.3 | IFN-γ response, stimulation index (SI) [2, 10]: 5.8 | IFN-γ response, stimulation index (SI) [2, 11]: 4.0

GSLQPLALEGSLQKRGIV [C19-A3]
Prevalence of IL-10 responses, Totals (responders/tested) [1]: 1/12 and 2/5 | IL-10 response, stimulation index (SI) ([1]; non-diabetic control subject C5): 10.3 | IL-10 response, stimulation index (SI) ([1]; non-diabetic control subject C8): 29.0 | IL-10 response, stimulation index (SI) [1, 3]: 5.0 | Prevalence of IL-10 responses, Totals (responders/tested) ([1]; non-diabetic control subjects, positive response SI≧3.0): 3/13 | IL-10 response, stimulation index (SI) [1, 4]: 10.21 | IL-10 response, stimulation index (SI) [1, 5]: 7.0 | IL-10 response, stimulation index (SI) ([1]; patient #33, T1DM with non-DR4 alleles): 3.1 | Prevalence of IFN-γ responses, Totals (%) [2, 6]: (47) % | Prevalence of IFN-γ responses, Totals (responders/tested) [2, 6]: 8/17 | Prevalence of IFN-γ responses, Totals (%) [2, 7]: (38) % | Prevalence of IFN-γ responses, Totals (responders/tested) [2, 7]: 3/8 | Prevalence of IFN-γ responses, Totals (%) ([2]; non-diabetic control subjects): (0) % | Prevalence of IFN-γ responses, Totals (responders/tested) ([2]; non-diabetic control subjects): 0/14 | IFN-γ response, stimulation index (SI) [2, 4]: 10.7 | IFN-γ response, stimulation index (SI) ([2]; patient #4, T1DM with HLA-DR4 alleles): 3.5 | IFN-γ response, stimulation index (SI) [2, 9]: 63.6 | IFN-γ response, stimulation index (SI) ([2]; patient #8, T1DM with HLA-DR4 alleles): 3.0 | IFN-γ response, stimulation index (SI) ([2]; patient #9, T1DM with HLA-DR4 alleles): 4.6 | IFN-γ response, stimulation index (SI) ([2]; patient #10, T1DM with HLA-DR4 alleles): 5.0 | IFN-γ response, stimulation index (SI) ([2]; patient #11, T1DM with HLA-DR4 alleles): 3.3 | IFN-γ response, stimulation index (SI) ([2]; patient #12, T1DM with HLA-DR4 alleles): 10.7 | IFN-γ response, stimulation index (SI) ([2]; patient #26, T1DM with non-DR4 alleles): 3.3 | IFN-γ response, stimulation index (SI) [2, 10]: 5.0 | IFN-γ response, stimulation index (SI) ([2]; patient #30, T1DM with non-DR4 alleles): 5.7

GGGPGAGSLQPLALEGSLQK [C13-C32, preproinsulin peptide, residues C13-C32]
Prevalence of IL-10 responses, Totals (responders/tested) ([1]; listed as C13–32): 1/12 and 1/5 and 1/13 | Prevalence of IFN-γ responses, Totals (%) [2, 6]: (12) % | Prevalence of IFN-γ responses, Totals (responders/tested) [2, 6]: 2/17 | Prevalence of IFN-γ responses, Totals (%) [2, 7]: (25) % | Prevalence of IFN-γ responses, Totals (responders/tested) [2, 7]: 2/8 | Prevalence of IFN-γ responses, Totals (%) ([2]; non-diabetic control subjects): (0) % | Prevalence of IFN-γ responses, Totals (responders/tested) ([2]; non-diabetic control subjects): 0/14 | IFN-γ response, stimulation index (SI) [2, 8]: 3.8 | IFN-γ response, stimulation index (SI) [2, 9]: 8.6 | IFN-γ response, stimulation index (SI) [2, 10]: 11.5 | IFN-γ response, stimulation index (SI) [2, 11]: 4.7
